This series deals with T1, MRP4 (Homo sapiens, UniProt O15439).
T1 sequence (O15439 1-1325): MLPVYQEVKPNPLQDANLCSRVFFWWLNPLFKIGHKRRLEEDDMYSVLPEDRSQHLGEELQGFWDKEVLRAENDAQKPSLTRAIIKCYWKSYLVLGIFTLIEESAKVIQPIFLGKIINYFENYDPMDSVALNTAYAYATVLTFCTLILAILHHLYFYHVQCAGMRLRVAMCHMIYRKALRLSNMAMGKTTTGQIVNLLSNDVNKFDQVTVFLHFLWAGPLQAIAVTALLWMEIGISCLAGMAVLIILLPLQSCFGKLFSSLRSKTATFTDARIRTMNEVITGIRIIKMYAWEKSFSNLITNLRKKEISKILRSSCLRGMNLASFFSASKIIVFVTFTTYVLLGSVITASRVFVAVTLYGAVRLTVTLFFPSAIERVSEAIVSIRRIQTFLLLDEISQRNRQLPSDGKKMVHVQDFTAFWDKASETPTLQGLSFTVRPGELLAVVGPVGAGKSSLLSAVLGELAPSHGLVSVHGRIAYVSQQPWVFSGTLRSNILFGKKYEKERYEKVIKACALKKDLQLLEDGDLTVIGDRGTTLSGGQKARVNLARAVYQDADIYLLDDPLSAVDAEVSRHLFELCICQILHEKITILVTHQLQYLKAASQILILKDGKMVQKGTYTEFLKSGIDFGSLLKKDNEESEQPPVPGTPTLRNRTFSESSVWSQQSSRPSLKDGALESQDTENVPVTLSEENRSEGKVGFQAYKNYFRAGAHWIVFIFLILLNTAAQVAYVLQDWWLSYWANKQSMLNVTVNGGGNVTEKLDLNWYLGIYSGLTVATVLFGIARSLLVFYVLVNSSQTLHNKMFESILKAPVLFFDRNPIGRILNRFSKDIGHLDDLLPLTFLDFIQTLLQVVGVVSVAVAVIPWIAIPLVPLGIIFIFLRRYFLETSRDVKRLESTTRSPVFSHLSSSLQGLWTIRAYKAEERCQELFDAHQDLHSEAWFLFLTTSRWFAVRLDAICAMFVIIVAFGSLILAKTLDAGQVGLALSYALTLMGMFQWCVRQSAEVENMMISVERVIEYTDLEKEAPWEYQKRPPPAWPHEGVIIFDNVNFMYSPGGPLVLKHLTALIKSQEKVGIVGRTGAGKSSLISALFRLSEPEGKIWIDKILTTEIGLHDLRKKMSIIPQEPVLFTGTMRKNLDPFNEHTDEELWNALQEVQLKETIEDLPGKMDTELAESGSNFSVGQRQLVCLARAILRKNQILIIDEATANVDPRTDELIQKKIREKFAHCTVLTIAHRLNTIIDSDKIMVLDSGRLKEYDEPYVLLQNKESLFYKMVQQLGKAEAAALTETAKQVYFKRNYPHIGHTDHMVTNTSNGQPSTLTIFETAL
Description: Membrane vesicle transport inhibition assay: MRP4-mediated [3H]-MTX uptake. As to conditions: for IC20 at 10 min: human; for Effect on transport mediated by MRP4 / Decrease of MRP4-mediated transport compared to control: [3H]-MTX uptake; for Effect on transport mediated by MRP4: result in words; for Decrease of MRP4-mediated transport compared to control: toxin 1 mM; for Mode of inhibition of MRP4-mediated transport: Dixon plot, three [3H]-MTX concentrations. Here is the method: Human embryonic kidney (HEK293; purchased at American Type Culture Collection, Manassas, VA) cells were cultured in Dulbecco's modified Eagle's medium (Invitrogen life sciences, Breda, the Netherlands) containing 10% (v/v) fetal calf serum (MP Biomedicals, Uden, the Netherlands) at 37°C in a 5% (v/v) CO2 atmosphere. To functionally overexpress MRP4 and BCRP, HEK293 cells were transduced with baculoviruses of human MRP4, BCRP or enhanced yellow fluorescent protein (EYFP), generated via the Bac-to-Bac system (Invitrogen) as previously described. To transduce HEK293 cells, they were cultured in 500 cm^2 flasks until 70% confluence. Subsequently, medium was removed and 10 ml of virus and 25 ml of medium were added and incubated for 30 min at 37°C. Next, 50 ml of medium was added and after 2 h of transduction 5 mM sodium butyrate was added.
Three days after transduction, cells were harvested and pelleted by centrifugation (30 min at 4,000 x g). Afterwards, the cells were resuspended in ice-cold hypotonic TS buffer (0.5 mM sodium phosphate, 0.1 mM EDTA, pH 7.0) containing protease inhibitors (100 µM phenylmethylsulfonyl fluoride, 5 µg/ml aprotinin, 5 µg/ml leupeptin, 1 µg/ml pepstatin and 1 µg/ml E-64) and shaken for 30 min at 4°C. Cells were then centrifuged at 100,000 x g for 30 min at 4°C. […] Afterwards, supernatant was centrifuged at 100,000 x g for 1 h at 4°C. […] The protein content of samples was determined using the Bio-Rad protein assay (Veenendaal, the Netherlands), according to manufacturers recommendations. Vesicles were frozen in liquid nitrogen and stored at −80°C until use. The orientation of the membrane vesicles was not determined, since ATP-dependent uptake occurs only in inside-out vesicles.
A rapid filtration technique was used to study the uptake of [^3H]-MTX and [^3H]-E1S into MRP4 or BCRP membrane vesicles, as previously described. In short, 25 µl of TS buffer containing 4 mM ATP, 10 mM MgCl2 and radiolabeled substrate was added to 5 µl of the membrane vesicles (1.5 mg/ml). The transport assay was performed in the absence or presence of various concentrations of uremic toxins to evaluate the inhibitory effects of these compounds on MRP4-mediated [^3H]-MTX uptake and BCRP-mediated [^3H]-E1S uptake. […] Uptake was stopped by placing the samples on ice and the addition of 150 µl ice cold TS buffer. Subsequently, the samples were transferred to a 96 well filter plate (Millipore, Etten-leur, the Netherlands) pre-incubated with TS buffer and filtered using a Multiscreen HTS-Vacuum Manifold filtration device (Millipore). Afterwards, 2 ml of scintillation liquid was added to each filter and radioactivity was determined using liquid scintillation counting. As negative controls ATP was substituted for AMP and EYFP-membrane vesicles were used. Each experiment was performed in triplicates.
Differences between groups were considered to be statistically significant when p<0.05. The mean IC50 and IC20 values were calculated from the inhibition curves used for the Dixon analysis and to determine the inhibition constant (Ki) from the Dixon plots. Transport inhibition studies were performed in triplicate and repeated at least three times.

Setting [1] is: membrane vesicles from HEK293 cells overexpressing MRP4, pH 7, probe [3H]-methotrexate ([3H]-MTX).
Where [2] appears, read: IC50 (concentration inhibiting 50% of transport by MRP4), MRP4-mediated [3H]-MTX uptake.
[3] abbreviates: IC50, [3H]-MTX uptake into MRP4 membrane vesicles, 10 min, 37°C, mean ± SEM of three experiments.

Counter-ions that a name gives are not always drawn. Like-named read-outs stand apart in the source and are kept apart here. Bounds are passed on as bounds.

On to `O=C(O)c1cc(=O)c2ccccc2[nH]1` [kynurenic acid], for which the IC50 is 0.008 ± 0.001 mM and the affinity corresponds to a Ki of 0.025 ± 0.002 mM. For the same molecule, it took 1.5 ± 0.3 µM to reach the 20% level under setting [1] (IC20 at 10 min).

With `O=C(O)Cc1ccccc1` [phenylacetic acid], the concentration for half-maximal inhibition (IC50) runs as follows: under setting [2], 7 mM; under setting [3], 7.1 ± 1.6 mM. The same molecule gave a concentration for an effect of 20% (IC20) at 10 min (pH 7) of 1600 ± 170 µM.

As for `Cc1ccc(S(=O)(=O)O)cc1` [p-toluenesulfonic acid, reference compound], the “Effect on transport mediated by MRP4” value is “did not alter transport” and the “Decrease of MRP4-mediated transport compared to control” value (shortened to “Decrease of MRP4-mediated transport”) is at most 10%.

As to `O=C(O)c1cccnc1C(=O)O` [quinolinic acid], the “Effect on transport mediated by MRP4” value is “did not alter transport” and the “Decrease of MRP4-mediated transport” value is at most 10%.

Take `O=C(O)Cc1c[nH]c2ccccc12` [indole-3-acetic acid]: the inhibition constant (Ki) was 2 ± 0.07 mM and the “Mode of inhibition of MRP4-mediated transport” value is listed as “non-competitive”. Besides, the half-maximal inhibitory concentration (IC50) under setting [3] is 1.795 ± 0.008 mM. Under setting [1], this molecule came in with an IC20 at 10 min of 570 ± 30 µM.

Consider `O=C(O)C(=O)O` [oxalate], for which the “Effect on transport mediated by MRP4” value is “did not alter transport” and the “Decrease of MRP4-mediated transport” value is at most 10%.

Turning to `O=C(O)CNC(=O)c1ccccc1` [hippuric acid], the inhibitory constant (Ki) was 2.5 ± 0.05 mM and the “Mode of inhibition of MRP4-mediated transport” value is recorded as “non-competitive”. Under setting [2], 2.5 mM corresponded to half-maximal inhibition (IC50). Further, the IC50 under setting [3] is 0.99 ± 0.18 mM. Under setting [1], this molecule had an IC20 at 10 min of 350 ± 20 µM.

For `Cc1ccc(O)cc1` [p-cresol], the “Effect on transport mediated by MRP4” value is “did not alter transport” and the “Decrease of MRP4-mediated transport” value was at most 10%.

In the case of `NCCCCN` [putrescine], the “Effect on transport mediated by MRP4” value is “did not alter transport” and the “Decrease of MRP4-mediated transport” value was at most 10%.

For `O=S(=O)(O)Oc1c[nH]c2ccccc12` [indoxyl sulfate], half-maximal inhibition (IC50) required 1.75 ± 0.11 mM, affinity was put at a Ki of 1 ± 0.09 mM and the “Mode of inhibition of MRP4-mediated transport” value is “non-competitive”. For the same molecule, under setting [1], the 20% effect concentration (IC20) at 10 min turned out to be 530 ± 70 µM.

These data come from paper PMC3070735, “Uremic Toxins Inhibit Transport by Breast Cancer Resistance Protein and Multidrug Resistance Protein 4 at Clinically Relevant Concentrations” (PLoS ONE, 2011).
